Legend:
mTOR [1] = test: mTOR activity by immunoblotting of S6K1 (T389) and ULK1 (S757) phosphorylation in HEK293T cells; assay type: cell-based; settings: HEK293T cells, full medium, 1 h
Protocol: (§1) (A) Dose-response analysis of mTOR activity in HEK293T cells treated with glycyl-L-phenylalanine 2-naphththylamide (GPN) in full medium for 1 h. mTOR activity was monitored by inununoblotting analysis of S6K1 (T389) and ULK1 (S757) phosphorylation (phosphorylated S6K (T389) and ULK1 (S757) relative to total S6K and ULK1, respectively). (B) Analysis of mTOR activity (as in A) after GPN washout. HEK293T cells were treated with 100 μM GPN for 1 h followed by 1 h washout in full medium. Data, means±SEM (n=3), **p<0.01, ANOVA. (C) Analysis of mTOR activity (as in A) in HEK293T cells treated with increasing doses of silica in full medium for 1 h. (D) HEK293T cells were treated with lysosomal damaging agents (LLOMe, Leu-Leu-OMe) for 1 h in full medium and status of acidified organelles assessed by quantifying LysoTracker Red DND-99 puncta using automated high-content imaging and analysis (HC). None-treated cells were as control (Ctrl). White masks, algorithm defined cell boundaries (primary objects); yellow masks, computer-identified LysoTracker Red puncta (target objects). Data, means±SEM, n≥3 independent experiments (500 primary objects counted per well; ≥5 wells/sample per each experiment), **p<0.01, ANOVA. (E) Analysis of mTOR activity in primary human macrophages treated with GPN. Human peripheral blood monocyte derived macrophages were treated with 100 μM GPN in full medium or starved in EBSS for 1 h, and mTOR activity measured as in A. None-treated cells were as control (Ctrl). (F) Quantification by HC of overlaps between mTOR and LAMP2 (representative images shown in FIG. S1D) in HeLa cells treated with lysosomal damaging agents for 1 h in full medium. Data, means±SEM, n≥3 independent experiments (500 primary objects counted per well; ≥5 wells/sample per each experiment) **p<0.01, ANOVA. (G) Immunofluorescence confocal microscopy visualization of mTOR localization relative to LAMP2-positive lysosomes. […] (H) Analysis of TFEB nuclear translocation in HeLa cells treated with 100 μM GPN in full medium for 1 h, and the nuclear translocation of TFEB was measured by HC (Nuclei, Hoechst 33342, blue pseudocolor; TFEB red fluorescence, Alexa-568). […] White masks, computer algorithm-defined cell boundaries (primary objects); pink masks, computer-identified nuclear TFEB based on the average intensity of Alexa-568 fluorescence. Data, means±SEM, n≥3 independent experiments (500 primary objects counted per well; ≥5 wells/sample per each experiment), **p<0.01, ANOVA. (I) HeLa cells were treated as indicated in full medium for 1 h, and LC3 puncta were quantified by HC. […] Data, means±SEM, n≥3 independent experiments (500 primary objects counted per well; ≥5 wells/sample per each experiment), **p<0.01, ANOVA. […]

mTOR [2] = test: mTOR localization relative to LAMP2-positive lysosomes (HC and confocal microscopy); assay type: cell-based; settings: HeLa cells
Protocol: as §1

TFEB = TFEB nuclear translocation by high-content microscopy in HeLa cells; assay type: cell-based; settings: 1 h full medium
Protocol: (A) Dose-response analysis of mTOR activity in HEK293T cells treated with glycyl-L-phenylalanine 2-naphththylamide (GPN) in full medium for 1 h. mTOR activity was monitored by inununoblotting analysis of S6K1 (T389) and ULK1 (S757) phosphorylation (phosphorylated S6K (T389) and ULK1 (S757) relative to total S6K and ULK1, respectively). (B) Analysis of mTOR activity (as in A) after GPN washout. HEK293T cells were treated with 100 μM GPN for 1 h followed by 1 h washout in full medium. Data, means±SEM (n=3), **p<0.01, ANOVA. (C) Analysis of mTOR activity (as in A) in HEK293T cells treated with increasing doses of silica in full medium for 1 h. (D) HEK293T cells were treated with lysosomal damaging agents (LLOMe, Leu-Leu-OMe) for 1 h in full medium and status of acidified organelles assessed by quantifying LysoTracker Red DND-99 puncta using automated high-content imaging and analysis (HC). […] Data, means±SEM, n≥3 independent experiments (500 primary objects counted per well; ≥5 wells/sample per each experiment), **p<0.01, ANOVA. […] Human peripheral blood monocyte derived macrophages were treated with 100 μM GPN in full medium or starved in EBSS for 1 h, and mTOR activity measured as in A. None-treated cells were as control (Ctrl). […] Data, means±SEM, n≥3 independent experiments (500 primary objects counted per well; ≥5 wells/sample per each experiment) **p<0.01, ANOVA. […]

[3] = tested on: bone marrow-derived macrophages (BMMs); test: LysoTracker Red DND-99 staining in bone marrow-derived macrophages (BMMs); assay type: cell-based, murine; settings: GPN 400 μM or LLOMe, 1 h

## COC(=O)[C@H](CC(C)C)NC(=O)[C@@H](N)CC(C)C [LLOMe, Leu-Leu-OMe]
mTOR [1]
  mTOR activity (phosphorylation of its substrates S6K1 and ULK1): caused inhibition of mTOR activity
mTOR [2]; 2 mM LLOMe 1 h followed by 1 h washout
  mTOR localization after washout: relocalization of mTOR to lysosomes
mTOR [2]; 1 h full medium
  mTOR localization (lysosomes vs cytosol, overlap with LAMP2): translocated from lysosomes to the cytosol
TFEB
  TFEB nuclear translocation: translocated to the nucleus from the cytoplasm
[3]
  LysoTracker Red DND-99 staining in BMMs (lysosomal damage): reduced LysoTracker Red DND-99 staining
